Test results reported in ChEMBL document CHEMBL4665642, “Anticancer profile of newly synthesized BRAF inhibitors possess 5-(pyrimidin-4-yl)imidazo[2,1-b]thiazole scaffold” (Bioorg Med Chem, 2019).

Legend:
Format in all cases: functional
Conditions in all cases: read-out: Activity
KM12 = test: Cytotoxicity against human KM12 cells assessed as cell viability at 10 uM incubated for 48 hrs by sulforhodamine B assay relative to control
UO-31 = test: Cytotoxicity against human UO-31 cells assessed as cell viability at 10 uM incubated for 48 hrs by sulforhodamine B assay relative to control
K562 = test: Cytotoxicity against human K562 cells assessed as cell viability at 10 uM incubated for 48 hrs by sulforhodamine B assay relative to control
A549 = test: Cytotoxicity against human A549 cells assessed as cell viability at 10 uM incubated for 48 hrs by sulforhodamine B assay relative to control
CAKI-1 = test: Cytotoxicity against human CAKI-1 cells assessed as cell viability at 10 uM incubated for 48 hrs by sulforhodamine B assay relative to control
IGROV-1 = test: Cytotoxicity against human IGROV-1 cells assessed as cell viability at 10 uM incubated for 48 hrs by sulforhodamine B assay relative to control
HOP-92 = test: Cytotoxicity against human HOP-92 cells assessed as cell viability at 10 uM incubated for 48 hrs by sulforhodamine B assay relative to control
MDA-MB-231 = test: Cytotoxicity against human MDA-MB-231 cells assessed as cell viability at 10 uM incubated for 48 hrs by sulforhodamine B assay relative to control
SK-MEL-5 = test: Cytotoxicity against human SK-MEL-5 cells assessed as cell viability at 10 uM incubated for 48 hrs by sulforhodamine B assay relative to control
UACC-257 = test: Cytotoxicity against human UACC-257 cells assessed as cell viability at 10 uM incubated for 48 hrs by sulforhodamine B assay relative to control
NCI-H460 = test: Cytotoxicity against human NCI-H460 cells assessed as cell viability at 10 uM incubated for 48 hrs by sulforhodamine B assay relative to control
EKVX = test: Cytotoxicity against human EKVX cells assessed as cell viability at 10 uM incubated for 48 hrs by sulforhodamine B assay relative to control
UACC-62 = test: Cytotoxicity against human UACC-62 cells assessed as cell viability at 10 uM incubated for 48 hrs by sulforhodamine B assay relative to control
SK-OV-3 = test: Cytotoxicity against human SK-OV-3 cells assessed as cell viability at 10 uM incubated for 48 hrs by sulforhodamine B assay relative to control
SK-MEL-2 = test: Cytotoxicity against human SK-MEL-2 cells assessed as cell viability at 10 uM incubated for 48 hrs by sulforhodamine B assay relative to control
NCI-H322M = test: Cytotoxicity against human NCI-H322M cells assessed as cell viability at 10 uM incubated for 48 hrs by sulforhodamine B assay relative to control
NCI-H23 = test: Cytotoxicity against human NCI-H23 cells assessed as cell viability at 10 uM incubated for 48 hrs by sulforhodamine B assay relative to control
HCT-29 = test: Cytotoxicity against human […] cells assessed as cell viability at 10 uM incubated for 48 hrs by sulforhodamine B assay relative to control
RPMI-8226 = test: Cytotoxicity against human RPMI-8226 cells assessed as cell viability at 10 uM incubated for 48 hrs by sulforhodamine B assay relative to control
HOP-62 = test: Cytotoxicity against human HOP-62 cells assessed as cell viability at 10 uM incubated for 48 hrs by sulforhodamine B assay relative to control
NCI-H522 = test: Cytotoxicity against human NCI-H522 cells assessed as cell viability at 10 uM incubated for 48 hrs by sulforhodamine B assay relative to control
HCT-15 = test: Cytotoxicity against human HCT-15 cells assessed as cell viability at 10 uM incubated for 48 hrs by sulforhodamine B assay relative to control
SR = test: Cytotoxicity against human SR cells assessed as cell viability at 10 uM incubated for 48 hrs by sulforhodamine B assay relative to control
SN12C = test: Cytotoxicity against human SN12C cells assessed as cell viability at 10 uM incubated for 48 hrs by sulforhodamine B assay relative to control
MDA-MB-468 = test: Cytotoxicity against human MDA-MB-468 cells assessed as cell viability at 10 uM incubated for 48 hrs by sulforhodamine B assay relative to control
LOX IMVI = test: Cytotoxicity against human LOX IMVI cells assessed as cell viability at 10 uM incubated for 48 hrs by sulforhodamine B assay relative to control
CCRF-CEM = test: Cytotoxicity against human CCRF-CEM cells assessed as cell viability at 10 uM incubated for 48 hrs by sulforhodamine B assay relative to control
HCC 2998 = test: Cytotoxicity against human HCC 2998 cells assessed as cell viability at 10 uM incubated for 48 hrs by sulforhodamine B assay relative to control
SW-620 = test: Cytotoxicity against human SW-620 cells assessed as cell viability at 10 uM incubated for 48 hrs by sulforhodamine B assay relative to control
ACHN = test: Cytotoxicity against human ACHN cells assessed as cell viability at 10 uM incubated for 48 hrs by sulforhodamine B assay relative to control
SK-MEL-28 = test: Cytotoxicity against human SK-MEL-28 cells assessed as cell viability at 10 uM incubated for 48 hrs by sulforhodamine B assay relative to control
SNB-19 = test: Cytotoxicity against human SNB-19 cells assessed as cell viability at 10 uM incubated for 48 hrs by sulforhodamine B assay relative to control
SF-268 = test: Cytotoxicity against human SF-268 cells assessed as cell viability at 10 uM incubated for 48 hrs by sulforhodamine B assay relative to control
MCF7 = test: Cytotoxicity against human MCF7 cells assessed as cell viability at 10 uM incubated for 48 hrs by sulforhodamine B assay relative to control
T47D = test: Cytotoxicity against human T47D cells assessed as cell viability at 10 uM incubated for 48 hrs by sulforhodamine B assay relative to control
COLO 205 = test: Cytotoxicity against human COLO 205 cells assessed as cell viability at 10 uM incubated for 48 hrs by sulforhodamine B assay relative to control
DU-145 = test: Cytotoxicity against human DU-145 cells assessed as cell viability at 10 uM incubated for 48 hrs by sulforhodamine B assay relative to control
MOLT-4 = test: Cytotoxicity against human MOLT-4 cells assessed as cell viability at 10 uM incubated for 48 hrs by sulforhodamine B assay relative to control
HCT-116 = test: Cytotoxicity against human HCT-116 cells assessed as cell viability at 10 uM incubated for 48 hrs by sulforhodamine B assay relative to control
NCI-H226 = test: Cytotoxicity against human NCI-H226 cells assessed as cell viability at 10 uM incubated for 48 hrs by sulforhodamine B assay relative to control
SNB-75 = test: Cytotoxicity against human SNB-75 cells assessed as cell viability at 10 uM incubated for 48 hrs by sulforhodamine B assay relative to control

O=S(=O)(NCCCNc1nccc(-c2c(-c3cccc(F)c3)nc3sccn23)n1)c1ccccc1
viability at 10 µM (KM12): 62.1%
viability at 10 µM (UO-31): 39%
viability at 10 µM (K562): 34.3%
viability at 10 µM (A549): 63%
viability at 10 µM (CAKI-1): 56.4%
viability at 10 µM (IGROV-1): 35.2%
viability at 10 µM (HOP-92): 80.2%
viability at 10 µM (MDA-MB-231): 70.8%
viability at 10 µM (SK-MEL-5): 30.7%
viability at 10 µM (UACC-257): 86.7%
viability at 10 µM (NCI-H460): 65.3%
viability at 10 µM (EKVX): 65.4%
viability at 10 µM (UACC-62): 26.8%
viability at 10 µM (SK-OV-3): 71.5%
viability at 10 µM (SK-MEL-2): 65.1%
viability at 10 µM (NCI-H322M): 89.3%
viability at 10 µM (NCI-H23): 76.9%
viability at 10 µM (HCT-29): 32.9%
viability at 10 µM (RPMI-8226): 48%
viability at 10 µM (HOP-62): 98.9%
viability at 10 µM (NCI-H522): 47%
viability at 10 µM (HCT-15): 37.8%
viability at 10 µM (SR): 82.2%
viability at 10 µM (SN12C): 58.2%
viability at 10 µM (MDA-MB-468): 62.7%
viability at 10 µM (LOX IMVI): 50.3%
viability at 10 µM (CCRF-CEM): 44.1%
viability at 10 µM (HCC 2998): 120%
viability at 10 µM (SW-620): 91.3%
viability at 10 µM (ACHN): 54.1%
viability at 10 µM (SK-MEL-28): 83.4%
viability at 10 µM (SNB-19): 93.5%
viability at 10 µM (SF-268): 71.5%
viability at 10 µM (MCF7): 50.8%
viability at 10 µM (T47D): 14.4%
viability at 10 µM (COLO 205): 29%
viability at 10 µM (DU-145): 72.7%
viability at 10 µM (MOLT-4): 37.1%
viability at 10 µM (HCT-116): 56.7%
viability at 10 µM (NCI-H226): 43.2%
viability at 10 µM (SNB-75): 102%

O=S(=O)(NCCCNc1nccc(-c2c(-c3cccc(F)c3)nc3sccn23)n1)c1ccc(Br)cc1
viability at 10 µM (KM12): 46.7%
viability at 10 µM (UO-31): 31.6%
viability at 10 µM (K562): 25.4%
viability at 10 µM (A549): 55.1%
viability at 10 µM (CAKI-1): 50.3%
viability at 10 µM (IGROV-1): 24.4%
viability at 10 µM (HOP-92): 73.7%
viability at 10 µM (MDA-MB-231): 76.4%
viability at 10 µM (SK-MEL-5): 21.2%
viability at 10 µM (UACC-257): 62.4%
viability at 10 µM (NCI-H460): 60.5%
viability at 10 µM (EKVX): 57.4%
viability at 10 µM (UACC-62): 18.3%
viability at 10 µM (SK-OV-3): 80.1%
viability at 10 µM (SK-MEL-2): 61.4%
viability at 10 µM (NCI-H322M): 81%
viability at 10 µM (NCI-H23): 57.4%
viability at 10 µM (HCT-29): 23.8%
viability at 10 µM (RPMI-8226): 39.4%
viability at 10 µM (HOP-62): 94.4%
viability at 10 µM (NCI-H522): 37.9%
viability at 10 µM (HCT-15): 26.4%
viability at 10 µM (SR): 78.1%
viability at 10 µM (SN12C): 53.9%
viability at 10 µM (MDA-MB-468): 32.3%
viability at 10 µM (LOX IMVI): 40.2%
viability at 10 µM (CCRF-CEM): 36.8%
viability at 10 µM (HCC 2998): 96.9%
viability at 10 µM (SW-620): 77.6%
viability at 10 µM (ACHN): 50.3%
viability at 10 µM (SK-MEL-28): 67%
viability at 10 µM (SNB-19): 84.5%
viability at 10 µM (SF-268): 60.6%
viability at 10 µM (MCF7): 41.9%
viability at 10 µM (T47D): 13.7%
viability at 10 µM (COLO 205): 33.5%
viability at 10 µM (DU-145): 61.9%
viability at 10 µM (MOLT-4): 33.8%
viability at 10 µM (HCT-116): 46.2%
viability at 10 µM (NCI-H226): 32.7%
viability at 10 µM (SNB-75): 88.6%

O=S(=O)(NCCCNc1nccc(-c2c(-c3cccc(F)c3)nc3sccn23)n1)c1ccc(Cl)cc1
viability at 10 µM (KM12): 72.7%
viability at 10 µM (UO-31): 41.8%
viability at 10 µM (K562): 31.7%
viability at 10 µM (A549): 66.9%
viability at 10 µM (CAKI-1): 63%
viability at 10 µM (IGROV-1): 42.7%
viability at 10 µM (HOP-92): 85.7%
viability at 10 µM (MDA-MB-231): 77.9%
viability at 10 µM (SK-MEL-5): 40.9%
viability at 10 µM (UACC-257): 103%
viability at 10 µM (NCI-H460): 75.4%
viability at 10 µM (EKVX): 75.4%
viability at 10 µM (UACC-62): 40.4%
viability at 10 µM (SK-OV-3): 78.1%
viability at 10 µM (SK-MEL-2): 79.9%
viability at 10 µM (NCI-H322M): 93.2%
viability at 10 µM (NCI-H23): 86%
viability at 10 µM (HCT-29): 36.9%
viability at 10 µM (RPMI-8226): 55.3%
viability at 10 µM (HOP-62): 102%
viability at 10 µM (NCI-H522): 57.4%
viability at 10 µM (HCT-15): 49.6%
viability at 10 µM (SR): 92.9%
viability at 10 µM (SN12C): 65.9%
viability at 10 µM (MDA-MB-468): 63.6%
viability at 10 µM (LOX IMVI): 60.3%
viability at 10 µM (CCRF-CEM): 46.6%
viability at 10 µM (HCC 2998): 123%
viability at 10 µM (SW-620): 104%
viability at 10 µM (ACHN): 60%
viability at 10 µM (SK-MEL-28): 92.3%
viability at 10 µM (SNB-19): 93%
viability at 10 µM (SF-268): 76.3%
viability at 10 µM (MCF7): 61.7%
viability at 10 µM (T47D): 25.6%
viability at 10 µM (COLO 205): 41.3%
viability at 10 µM (DU-145): 78.2%
viability at 10 µM (MOLT-4): 48.3%
viability at 10 µM (HCT-116): 64%
viability at 10 µM (NCI-H226): 46.9%
viability at 10 µM (SNB-75): 102%
